From article PMC10322960 (European Journal of Drug Metabolism and Pharmacokinetics, 2023)

Experiments:
OCT2 = biological target: T1, OCT2 (Homo sapiens, UniProt O15244); assay: OCT2 uptake substrate assay; type: in vitro ADME
T1 sequence (O15244 1-555): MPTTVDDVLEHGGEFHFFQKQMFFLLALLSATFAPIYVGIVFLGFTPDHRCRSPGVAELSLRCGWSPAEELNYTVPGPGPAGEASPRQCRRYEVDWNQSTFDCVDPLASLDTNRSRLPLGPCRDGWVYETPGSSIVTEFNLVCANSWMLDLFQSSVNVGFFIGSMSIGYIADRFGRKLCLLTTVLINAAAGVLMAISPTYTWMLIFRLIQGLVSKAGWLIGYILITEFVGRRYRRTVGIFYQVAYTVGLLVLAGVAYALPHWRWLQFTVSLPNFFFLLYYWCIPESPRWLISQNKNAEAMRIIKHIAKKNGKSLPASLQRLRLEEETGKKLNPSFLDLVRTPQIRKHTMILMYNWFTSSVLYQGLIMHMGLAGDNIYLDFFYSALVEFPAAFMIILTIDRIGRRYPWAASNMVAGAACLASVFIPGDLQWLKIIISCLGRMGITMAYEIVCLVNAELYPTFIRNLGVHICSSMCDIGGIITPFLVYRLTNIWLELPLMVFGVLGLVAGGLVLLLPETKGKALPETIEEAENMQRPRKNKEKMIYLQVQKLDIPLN

CYP2D6 = CYP2D6 (Homo sapiens, UniProt P10635); assay: In vitro P450 inhibition, recombinant CYP2D6; type: in vitro ADME
OAT1 = biological target: T2, OAT1 (Homo sapiens, UniProt Q4U2R8); assay: OAT1 uptake inhibition assay; type: in vitro ADME; settings: 0.63–40 μM
T2 sequence (Q4U2R8 1-563): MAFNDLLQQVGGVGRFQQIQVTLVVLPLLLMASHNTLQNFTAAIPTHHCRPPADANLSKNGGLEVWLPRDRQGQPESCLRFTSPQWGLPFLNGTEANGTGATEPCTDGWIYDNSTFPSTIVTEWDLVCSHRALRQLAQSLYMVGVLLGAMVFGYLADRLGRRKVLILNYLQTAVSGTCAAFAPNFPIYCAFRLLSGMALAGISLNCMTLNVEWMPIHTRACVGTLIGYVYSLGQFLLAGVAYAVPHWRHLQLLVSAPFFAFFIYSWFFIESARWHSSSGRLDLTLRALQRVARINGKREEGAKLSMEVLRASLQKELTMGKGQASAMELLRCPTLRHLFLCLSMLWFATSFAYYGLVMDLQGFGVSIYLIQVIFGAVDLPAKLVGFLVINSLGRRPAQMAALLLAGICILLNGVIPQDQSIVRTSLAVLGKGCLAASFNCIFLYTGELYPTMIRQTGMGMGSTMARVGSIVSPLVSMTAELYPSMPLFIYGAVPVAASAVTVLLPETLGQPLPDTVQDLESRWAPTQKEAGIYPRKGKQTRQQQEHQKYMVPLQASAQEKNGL

[1] = 0.5 to 30 mg administered orally; cited from earlier work
[2] = Phase 1 clinical drug–drug interaction study, plasma pharmacokinetics; type: in vivo, human
MATE2-K = MATE2-K (Homo sapiens, UniProt Q86VL8); assay: MATE2-K uptake inhibition assay; type: in vitro ADME; settings: at 40 µM
OAT3 = biological target: T3, OAT3 (Homo sapiens, UniProt Q8TCC7); assay: OAT3 uptake substrate assay; type: in vitro ADME
T3 sequence (Q8TCC7 1-542): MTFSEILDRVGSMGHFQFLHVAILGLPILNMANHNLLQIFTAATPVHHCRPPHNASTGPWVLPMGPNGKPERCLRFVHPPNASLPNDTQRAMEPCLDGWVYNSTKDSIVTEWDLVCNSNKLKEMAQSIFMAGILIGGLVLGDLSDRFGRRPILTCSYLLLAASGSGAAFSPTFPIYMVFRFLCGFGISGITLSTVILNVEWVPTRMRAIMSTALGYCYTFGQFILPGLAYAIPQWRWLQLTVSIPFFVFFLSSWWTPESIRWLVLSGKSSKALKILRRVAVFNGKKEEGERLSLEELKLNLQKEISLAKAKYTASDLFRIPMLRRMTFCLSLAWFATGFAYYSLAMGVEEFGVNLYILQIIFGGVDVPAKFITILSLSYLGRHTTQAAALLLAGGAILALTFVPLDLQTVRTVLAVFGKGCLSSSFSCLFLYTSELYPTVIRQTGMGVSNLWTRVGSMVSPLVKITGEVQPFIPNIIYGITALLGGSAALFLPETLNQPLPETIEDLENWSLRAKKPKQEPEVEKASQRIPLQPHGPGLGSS

CYP2C8 = biological target: T4, CYP2C8 (Homo sapiens, UniProt P10632); assay: In vitro P450 inhibition, recombinant CYP2C8; type: in vitro ADME
T4 sequence (P10632 1-490): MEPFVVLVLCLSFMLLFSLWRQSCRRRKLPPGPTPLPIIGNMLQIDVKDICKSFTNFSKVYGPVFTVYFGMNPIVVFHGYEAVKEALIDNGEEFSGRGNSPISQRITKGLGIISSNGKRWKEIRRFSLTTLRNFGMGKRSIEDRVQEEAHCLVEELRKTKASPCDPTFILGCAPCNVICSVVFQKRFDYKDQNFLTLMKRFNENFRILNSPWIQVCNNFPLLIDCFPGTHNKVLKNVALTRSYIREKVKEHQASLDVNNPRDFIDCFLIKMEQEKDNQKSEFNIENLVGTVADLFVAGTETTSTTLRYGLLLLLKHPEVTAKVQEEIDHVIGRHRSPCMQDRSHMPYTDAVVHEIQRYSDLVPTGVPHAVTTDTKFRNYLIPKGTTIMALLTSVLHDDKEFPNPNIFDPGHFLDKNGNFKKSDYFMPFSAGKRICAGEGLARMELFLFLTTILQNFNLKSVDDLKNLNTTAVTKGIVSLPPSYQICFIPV

CYP3A4 = settings: ocedurenone at 0.1, 1, or 10 μM, 72 h; inducer criterion 40%
[3] = transporter-expressing vs control cells, 0.04–40 µm
[4] = ocedurenone + itraconazole (test) vs ocedurenone alone (reference), Cohort 1
[5] = ocedurenone + rifampin (test) vs ocedurenone alone (reference), Cohort 2

Sequence of CYP2D6 (P10635 whole entry): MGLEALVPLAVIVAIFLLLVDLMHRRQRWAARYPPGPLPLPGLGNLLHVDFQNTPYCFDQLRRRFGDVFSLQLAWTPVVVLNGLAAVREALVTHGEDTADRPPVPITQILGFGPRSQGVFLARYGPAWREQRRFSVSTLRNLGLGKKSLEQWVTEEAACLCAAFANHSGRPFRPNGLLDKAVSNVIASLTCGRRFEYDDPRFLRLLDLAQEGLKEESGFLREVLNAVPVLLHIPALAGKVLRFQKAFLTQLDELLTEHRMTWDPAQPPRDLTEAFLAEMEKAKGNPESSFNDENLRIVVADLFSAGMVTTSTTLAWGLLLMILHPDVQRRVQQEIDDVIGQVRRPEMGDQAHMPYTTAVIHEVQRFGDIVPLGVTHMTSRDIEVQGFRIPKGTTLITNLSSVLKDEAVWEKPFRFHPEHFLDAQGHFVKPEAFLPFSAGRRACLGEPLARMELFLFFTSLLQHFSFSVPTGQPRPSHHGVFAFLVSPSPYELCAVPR
Sequence of MATE2-K (Q86VL8 1-566 isoform Q86VL8-3): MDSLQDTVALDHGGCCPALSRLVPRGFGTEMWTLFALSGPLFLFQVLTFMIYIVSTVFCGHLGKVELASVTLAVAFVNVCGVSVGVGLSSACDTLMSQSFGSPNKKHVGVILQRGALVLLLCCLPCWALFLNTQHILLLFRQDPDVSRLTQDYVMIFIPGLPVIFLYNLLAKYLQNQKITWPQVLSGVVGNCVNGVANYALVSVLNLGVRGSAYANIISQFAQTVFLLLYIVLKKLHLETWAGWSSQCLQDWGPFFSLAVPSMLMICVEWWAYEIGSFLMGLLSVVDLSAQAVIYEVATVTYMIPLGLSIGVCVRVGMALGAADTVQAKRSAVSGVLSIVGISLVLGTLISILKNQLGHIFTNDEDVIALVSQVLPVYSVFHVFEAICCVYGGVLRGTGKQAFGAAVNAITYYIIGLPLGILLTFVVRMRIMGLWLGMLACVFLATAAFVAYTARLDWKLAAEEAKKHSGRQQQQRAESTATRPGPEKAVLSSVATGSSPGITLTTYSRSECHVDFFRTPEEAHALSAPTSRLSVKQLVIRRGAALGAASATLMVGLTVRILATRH

## N#Cc1ccc(N2N=C3c4ccc(C(=O)N5CCC(O)CC5)nc4CC[C@@H]3[C@@H]2C2CCCC2)cc1Cl [Ocedurenone, ocedurenone]
OCT2
  Substrate, OCT2 UPT: not likely to be a substrate
OCT2; [3]
  Maximum fold accumulation, OCT2 UPT: 1.0
CYP2D6; ocedurenone at 200 μM
  percent remaining activity of CYP2D6: 87.8%
CYP2D6; read-out: IC50 CYP2D6, recombinant CYP
  IC50: > 200 µM
CYP2D6; recombinant enzyme
  inhibition category CYP2D6: little or no inhibition
OAT1
  interaction with human OAT1 transporter (inhibition): No interaction
[1]
  safety and tolerability, single ascending dose: safe and well-tolerated
[2]; [4]
  geometric least squares mean ratio (test:reference) and 90% CI, AUC0-inf: 199.5 (182.3, 218.3)
  geometric least squares mean ratio (test:reference) and 90% CI, AUClast: 161.0 (152.3, 170.3)
  geometric least squares mean ratio (test:reference) and 90% CI, Cmax: 107.4 (103.2, 111.8)
[2]; [5]
  geometric least squares mean ratio (test:reference) and 90% CI, AUC0-inf: 17.2 (16.2, 18.2)
  geometric least squares mean ratio (test:reference) and 90% CI, AUClast: 17.5 (16.6, 18.5)
  geometric least squares mean ratio (test:reference) and 90% CI, Cmax: 73.4 (69.5, 77.5)
[2]; strong CYP3A4 inducer rifampin
  effect of rifampin on ocedurenone pharmacokinetics (interaction class): strong (> 5-fold)
[2]; strong CYP3A inhibitor itraconazole
  effect of itraconazole on ocedurenone exposure (interaction class): weak (1.25- to 2-fold)
MATE2-K
  maximum inhibition of MATE2-K-mediated probe substrate accumulation: 79%
OAT3
  Substrate, OAT3 UPT: not likely to be a substrate
OAT3; [3]
  Maximum fold accumulation, OAT3 UPT: < 2
CYP2C8; ocedurenone at 200 μM
  percentage remaining activity of CYP2C8: 26.4%
CYP2C8; read-out: IC50 CYP2C8, recombinant CYP, results section
  IC50: > 10 µM
CYP2C8; recombinant enzyme
  inhibition category CYP2C8: weak inhibition (IC50 >10 μM categorized as weak inhibition)
CYP3A4
  percent CYP3A4 induction (of positive control): lower than 40%
